Assay results taken from ChEMBL document CHEMBL1130710, “Design and synthesis of a novel class of nucleotide analogs with anti-HCMV activity” (Bioorg Med Chem Lett, 1998).
Values after ≈ are worked out from the molar mass of the structure shown. Values joined by “and” are separate entries in the source; they are usually repeats but may differ in a detail not shown here. Identical values can stand only once.

Legend:
F2002 cell line [1] = assay: (§1) Anti-HCMV activity against F2002 cell line; type: functional, cell-based, Homo sapiens
F2002 cell line [2] = assay: as §1; type: functional; conditions: Homo sapiens, read-out: CD50 (the source's name)
F2002 cell line [3] = assay: Compound was tested for Anti-HCMV activity against F2002 cell line(exp 1); type: functional, cell-based; conditions: Homo sapiens
F2002 cell line [4] = assay: Compound was tested for Anti-HCMV activity against F2002 cell line(exp 2); type: functional, cell-based; conditions: Homo sapiens
[5] = Homo sapiens, F2002, read-out: IC50

| IC50 (F2002 cell line [1]; [5]) [µg/mL] | IC50 (F2002 cell line [1]; f2002) | IC50 (F2002 cell line [3]) [µg/mL] | IC50 (F2002 cell line [4]) [µg/mL] | Structure (SMILES) | CC50 (F2002 cell line [2]) [µg/mL] |
| --- | --- | --- | --- | --- | --- |
| > 100 |  |  |  | Cc1cn(CC2COC(P(=O)(O)O)O2)c(=O)[nH]c1=O (stereo unspecified) | > 100 |
| > 30 |  |  |  | N.Nc1nc(O)c2ncn(C[C@H]3CO[C@H](P(=O)(O)O)O3)c2n1 | > 30 |
| > 100 |  |  |  | Nc1ncnc2c1ncn2CC1COC(P(=O)(O)O)O1 (stereo unspecified) | > 100 |
|  | 45 µg/mL and > 100 µg/mL |  |  | N.Nc1nc(O)c2ncn(C[C@@H]3CO[C@H](P(=O)(O)O)O3)c2n1 |  |
| > 100 |  |  |  | N.Nc1nc(O)c2ncn(C[C@@H]3CO[C@@H](P(=O)(O)O)O3)c2n1 | > 100 |
| > 100 |  |  |  | N.O=c1ccn(CC2COC(P(=O)(O)O)O2)c(=O)[nH]1 (stereo unspecified) | > 100 |
| > 100 |  |  |  | N.Nc1nc(O)c2ncn(C[C@H]3CO[C@@H](P(=O)(O)O)O3)c2n1 | > 100 |
| > 100 |  |  |  | Nc1ccn(CC2COC(P(=O)(O)O)O2)c(=O)n1 (stereo unspecified) | > 100 |
|  | 20 µg/mL (≈ 63.1 µM) |  |  | Nc1nc(O)c2ncn(CC3COC(P(=O)(O)O)O3)c2n1 (stereo in doubt; 7a) |  |
|  | > 100 µg/mL |  |  | Nc1nc(O)c2ncn(CC3COC(P(=O)(O)O)O3)c2n1 (stereo in doubt; 7b) | > 100 |
|  |  | 0.1 (≈ 0.392 µM) | 0.2 (≈ 0.784 µM) | Nc1nc2c(ncn2COC(CO)CO)c(=O)[nH]1 [GANCICLOVIR] | > 100 |
